The source of these data is ChEMBL document CHEMBL4219163, “Discovery of 2,6-disubstituted pyrazine derivatives as inhibitors of CK2 and PIM kinases” (Bioorg Med Chem Lett, 2018).

Data set [1] can be described thus: Cmax in Wistar Han rat at 3 mg/kg, iv or 10 mg/kg, po. The conditions noted are these: in vivo. The class given is ADME, organism-based.
Data set [2] can be described thus: Clearance in Wistar Han rat at 3 mg/kg, iv. The conditions noted are these: in vivo. The class given is ADME, organism-based.
Data set [3] can be described thus: Volume of distribution at steady state in Wistar Han rat at 3 mg/kg, iv or 10 mg/kg, po. The class given is ADME, organism-based. The conditions noted are these: in vivo, read-out: Vdss.
Data set [4] in a line: AUC (0 to t) in Wistar Han rat at 3 mg/kg, iv or 10 mg/kg, po. The conditions noted are these: in vivo. The class given is ADME, organism-based.
Data set [5] is described as follows: Oral bioavailability in Wistar Han rat at 10 mg/kg. The class given is ADME, organism-based. The following applies: in vivo.
Data set [6] in a line: Half life in Wistar Han rat at 3 mg/kg, iv. The format is ADME, organism-based. The following applies: in vivo.
The nature of data set [7]: Lipophilicity, log D of the compound. The conditions noted are these: octanol/water. The class given is physicochemical.

Compound `CC(C)Nc1ccc2ccn(-c3cncc(-c4ccc(C(=O)O)cc4)n3)c2c1` showed a Cmax in data set [1] of 2900 nM. The same compound displayed a clearance in data set [2] of 56 mL/min/kg. In addition, the Vd in data set [3] turned out to be 1.8 L/kg. This compound came in with an AUC(0-t) in data set [4] of 5.5 µM·h. In data set [5], this compound showed a bioavailability of 80%. The compound also showed a half-life in data set [6] of 60 min.

With `CC(C)Nc1ccc2cnn(-c3cncc(-c4ccc(C(=O)O)cc4)n3)c2c1`, the concentration in data set [1] peaked (Cmax) at 830 nM. In data set [2], this compound had a clearance of 19 mL/min/kg. In addition, the Vd in data set [3] worked out at 1 L/kg. This compound also showed a logD in data set [7] of 1.06. Also, the AUC(0-t) in data set [4] was 5.5 µM·h. Besides, the bioavailability in data set [5] was determined as 24%. For the same compound, in data set [6], the half-life is 426 min.

By Cmax is commonly meant the peak of the concentration-time curve. Usually clearance stands for the rate of elimination divided by the concentration. As usually defined, the AUC(0-t) is exposure summed from dosing to a finite time, without extrapolation to infinity. Read a low AUC(0-t) as less exposure. As usually defined, the bioavailability is dose-corrected exposure relative to a reference, in per cent. A low value points to little systemic uptake. Usually half-life stands for the time needed for the level to fall by half in the phase considered. Lower therefore signals rapid decline. For orientation: logD means the decadic logarithm of the distribution of all forms, ionised or not, between an organic phase and buffer at a given pH. Low readings indicate lower lipophilicity, high ones higher lipophilicity.
